For 25 molecules, IC50 results are on record in patent publication US9493446B2, “Orexin receptor antagonists which are [ortho bi-(hetero-)aryl]-[2-(meta bi-(hetero-)aryl)-pyrrolidin-1-yl]-methanone derivatives” (Actelion Pharmaceuticals Ltd, priority 2012, dated 2016).

Like-named read-outs stand apart in the source and are kept apart here.

The target of one experiment is orexin-1 (Homo sapiens (Human), UniProt O43613). The experiment is described as follows: Intracellular calcium measurement (FLIPR), CHO cells expressing human orexin-1 receptor, 3 nM orexin-A. In kind it is cell-based. Conditions: read-out: IC50 OX1. A digest of the protocol:
(§1)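 CHO cells stably expressing each receptor were loaded with 3 μM fluo-4 AM plus 5 mM probenecid for 50 min at 37 °C, then equilibrated 30 min at rt.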

The target of a further experiment is human orexin-2 receptor (Homo sapiens (Human), UniProt O43614). The experiment is described as follows: Intracellular calcium measurement (FLIPR), CHO cells expressing human orexin-2 receptor, 3 nM orexin-A. It is filed as cell-based. Conditions: read-out: IC50 OX2. In a few lines: as §1
[1] abbreviates: CHO cells expressing human orexin-1 receptor, FLIPR, 3 nM orexin-A, geometric mean if determined several times.
Setting [2] is: CHO cells expressing human orexin-2 receptor, FLIPR, 3 nM orexin-A, geometric mean if determined several times.

Sequence of orexin-1 (O43613 whole entry): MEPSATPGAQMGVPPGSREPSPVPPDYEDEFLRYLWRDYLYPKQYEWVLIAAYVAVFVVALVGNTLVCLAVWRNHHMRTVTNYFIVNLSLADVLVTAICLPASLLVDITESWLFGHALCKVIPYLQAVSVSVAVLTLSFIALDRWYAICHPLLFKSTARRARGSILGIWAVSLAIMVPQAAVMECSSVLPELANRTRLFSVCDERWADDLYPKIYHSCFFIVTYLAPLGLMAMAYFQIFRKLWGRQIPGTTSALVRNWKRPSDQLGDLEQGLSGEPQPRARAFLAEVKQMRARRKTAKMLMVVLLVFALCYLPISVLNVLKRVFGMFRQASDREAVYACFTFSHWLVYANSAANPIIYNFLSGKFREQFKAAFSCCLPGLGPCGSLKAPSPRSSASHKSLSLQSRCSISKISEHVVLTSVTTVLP
Sequence of human orexin-2 receptor (O43614 whole entry): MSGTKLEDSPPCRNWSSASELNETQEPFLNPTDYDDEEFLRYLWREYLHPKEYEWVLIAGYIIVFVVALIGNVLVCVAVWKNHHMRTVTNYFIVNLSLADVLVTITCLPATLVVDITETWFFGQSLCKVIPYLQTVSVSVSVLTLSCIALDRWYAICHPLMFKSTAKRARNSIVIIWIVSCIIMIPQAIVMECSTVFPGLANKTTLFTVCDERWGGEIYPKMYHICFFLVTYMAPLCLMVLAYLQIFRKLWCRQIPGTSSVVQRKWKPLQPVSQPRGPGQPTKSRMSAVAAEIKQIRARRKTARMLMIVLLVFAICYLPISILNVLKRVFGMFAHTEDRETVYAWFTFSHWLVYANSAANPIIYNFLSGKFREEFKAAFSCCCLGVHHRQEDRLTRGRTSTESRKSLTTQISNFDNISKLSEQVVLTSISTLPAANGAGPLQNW

For the molecule `COc1cc(C(=O)N2CCC[C@H]2c2nc(-c3ccccc3OC(F)(F)F)no2)c(-n2nccn2)cc1Cl` [compound 281], the IC50 worked out at 42 nM at orexin-1 (setting [1]) and 17 nM at human orexin-2 receptor (setting [2]).
As to `COc1cc(C(=O)N2CCC[C@H]2c2nc(-c3cccc(F)c3OC)no2)c(-n2nccn2)cc1Cl` [compound 282], the values for the IC50 on orexin-1 (setting [1]) and on human orexin-2 receptor (setting [2]) were 44 nM and 1 nM, respectively.
With `CCOc1c(F)cccc1-c1noc([C@@H]2CCCN2C(=O)c2cc(OC)c(Cl)cc2-n2nccn2)n1` [compound 283], the IC50 at orexin-1 worked out at 34 nM; at human orexin-2 receptor (setting [2]), 7 nM.
Take `CCOc1ncccc1-c1noc([C@@H]2CCCN2C(=O)c2cc(OC)c(Cl)cc2-n2nccn2)n1` [compound 284]: the IC50 was 32 nM at orexin-1 and 5 nM on human orexin-2 receptor (setting [2]).
Turning to `COc1cc(C(=O)N2CCC[C@H]2c2nc(-c3ccccc3OC(F)(F)F)no2)c(-c2ncccn2)cc1C` [compound 285, (5-Methoxy-4-methyl-2-pyrimidin-2-yl-phenyl)-{(S)-2-[3-(2-trifluoromethoxy-phenyl)-[1,2,4]oxadiazol-5-yl]-pyrrolidin-1-yl}-methanone], the IC50 at orexin-1 (setting [1]) came out at 90 nM; at human orexin-2 receptor (setting [2]), 56 nM.
As for `COc1cc(C(=O)N2CCC[C@H]2c2nc(-c3cccc(F)c3OC)no2)c(-c2ncccn2)cc1C` [compound 286, {(S)-2-[3-(3-Fluoro-2-methoxy-phenyl)-[1,2,4]oxadiazol-5-yl]-pyrrolidin-1-yl}-(5-methoxy-4-methyl-2-pyrimidin-2-yl-phenyl)-methanone], the IC50 on orexin-1 (setting [1]) was 90 nM; at human orexin-2 receptor (setting [2]) it was 6 nM.
As for `CCOc1ncccc1-c1noc([C@@H]2CCCN2C(=O)c2cc(OC)c(C)cc2-c2ncccn2)n1` [compound 287, {(S)-2-[3-(2-Ethoxy-pyridin-3-yl)-[1,2,4]oxadiazol-5-yl]-pyrrolidin-1-yl}-(5-methoxy-4-methyl-2-pyrimidin-2-yl-phenyl)-methanone], the IC50 on orexin-1 (setting [1]) turned out to be 73 nM; at human orexin-2 receptor (setting [2]), 42 nM.
Take `CCOc1c(F)cccc1-c1noc([C@@H]2CCCN2C(=O)c2ccccc2-n2nccn2)n1` [compound 288, {(S)-2-[3-(2-Ethoxy-3-fluoro-phenyl)-[1,2,4]oxadiazol-5-yl]-pyrrolidin-1-yl}-(2-[1,2,3]triazol-2-yl-phenyl)-methanone]: the IC50 at orexin-1 (setting [1]) was 666 nM; on human orexin-2 receptor (setting [2]) it was 52 nM.
As to `CCOc1c(F)cccc1-c1noc([C@@H]2CCCN2C(=O)c2ccc(C)cc2-n2nccn2)n1` [compound 289, {(S)-2-[3-(2-Ethoxy-3-fluoro-phenyl)-[1,2,4]oxadiazol-5-yl]-pyrrolidin-1-yl}-(4-methyl-2-[1,2,3]triazol-2-yl-phenyl)-methanone], the IC50 at orexin-1 (setting [1]) was determined as 44 nM; on human orexin-2 receptor (setting [2]), 37 nM.
Turning to `CCOc1c(F)cccc1-c1noc([C@@H]2CCCN2C(=O)c2cc(C)c(C)cc2-n2nccn2)n1` [compound 290, (4,5-Dimethyl-2-[1,2,3]triazol-2-yl-phenyl)-{(S)-2-[3-(2-ethoxy-3-fluoro-phenyl)-[1,2,4]oxadiazol-5-yl]-pyrrolidin-1-yl}-methanone], the results for the IC50 at orexin-1 (setting [1]) and at human orexin-2 receptor (setting [2]) were 9 nM and 5 nM, respectively.
The matching figures for `CCOc1c(F)cccc1-c1noc([C@@H]2CCCN2C(=O)c2cc(OC)c(C)cc2-n2nccn2)n1` [compound 291, {(S)-2-[3-(2-Ethoxy-3-fluoro-phenyl)-[1,2,4]oxadiazol-5-yl]-pyrrolidin-1-yl}-(5-methoxy-4-methyl-2-[1,2,3]triazol-2-yl-phenyl)-methanone]: 21 nM and 5 nM.
With `CCOc1c(F)cccc1-c1noc([C@@H]2CCCN2C(=O)c2cc(OC)c(F)cc2-n2nccn2)n1` [compound 292, {(S)-2-[3-(2-Ethoxy-3-fluoro-phenyl)-[1,2,4]oxadiazol-5-yl]-pyrrolidin-1-yl}-(4-fluoro-5-methoxy-2-[1,2,3]triazol-2-yl-phenyl)-methanone], the half-inhibitory concentration (IC50) at orexin-1 (setting [1]) came out at 348 nM; on human orexin-2 receptor (setting [2]), 52 nM.
Turning to `Cc1cc(-n2nccn2)c(C(=O)N2CCC[C@H]2c2nc(-c3cccc(Cl)c3C)no2)cc1Cl` [compound 293], the IC50 was 32 nM at orexin-1 (setting [1]) and 10 nM at human orexin-2 receptor (setting [2]).
Turning to `Cc1c(F)cccc1-c1noc([C@@H]2CCCN2C(=O)c2ccc(Cl)cc2-n2nccn2)n1` [compound 294], the IC50 on orexin-1 (setting [1]) was 155 nM; at human orexin-2 receptor (setting [2]) it was 17 nM.
The matching figures for `COc1cc(C(=O)N2CCC[C@H]2c2nc(-c3cccc(F)c3C)no2)c(-n2nccn2)cc1Cl` [compound 295]: 78 nM and 3 nM.
Take `Cc1c(Cl)cccc1-c1noc([C@@H]2CCCN2C(=O)c2cccc(Cl)c2-n2nccn2)n1` [compound 296]: the results for the IC50 on orexin-1 (setting [1]) and at human orexin-2 receptor were 582 nM and 272 nM, respectively.
Regarding `COc1c(F)cccc1-c1noc([C@@H]2CCCN2C(=O)c2cccc(Cl)c2-n2nccn2)n1` [compound 297], the IC50 worked out at 690 nM at orexin-1 and 478 nM on human orexin-2 receptor (setting [2]).
Regarding `O=C(c1cccc(Cl)c1-n1nccn1)N1CCC[C@H]1c1nc(-c2ccccc2OC(F)(F)F)no1` [compound 298], the IC50 on orexin-1 (setting [1]) turned out to be 531 nM; on human orexin-2 receptor (setting [2]), 517 nM.
The matching figures for `Cc1cc(-n2nccn2)c(C(=O)N2CCC[C@H]2c2nc(-c3ccccc3OC(F)(F)F)no2)cc1Cl` [compound 299]: 25 nM and 19 nM.
As to `CCOc1c(F)cccc1-c1noc([C@@H]2CCCN2C(=O)c2cc(Cl)c(C)cc2-n2nccn2)n1` [compound 300], the IC50 on orexin-1 (setting [1]) amounted to 14 nM; at human orexin-2 receptor (setting [2]), 10 nM.
Turning to `CCOc1ncccc1-c1noc([C@@H]2CCCN2C(=O)c2cc(Cl)c(C)cc2-n2nccn2)n1` [compound 301], the half-maximal inhibitory concentration (IC50) is 19 nM at orexin-1 (setting [1]) and 6 nM on human orexin-2 receptor (setting [2]).
As for `Cc1cccc(-c2nc([C@@H]3CCCN3C(=O)c3cc(C)ccc3-n3nccn3)no2)c1` [compound 305, (5-Methyl-2-[1,2,3]triazol-2-yl-phenyl)-[(S)-2-(5-m-tolyl-[1,2,4]oxadiazol-3-yl)-pyrrolidin-1-yl]-methanone], the figures for the IC50 at orexin-1 (setting [1]) and at human orexin-2 receptor (setting [2]) were 164 nM and 74 nM, respectively.
Regarding `CCOc1ccccc1-c1nc([C@@H]2CCCN2C(=O)c2cc(C)ccc2-n2nccn2)no1` [compound 306, {(S)-2-[5-(2-Ethoxy-phenyl)-[1,2,4]oxadiazol-3-yl]-pyrrolidin-1-yl}-(5-methyl-2-[1,2,3]triazol-2-yl-phenyl)-methanone], the IC50 at orexin-1 (setting [1]) was found to be 36 nM; at human orexin-2 receptor (setting [2]), 2 nM.
The matching figures for `Cc1ccc(-n2nccn2)c(C(=O)N2CCC[C@H]2c2noc(-c3cccc4c3OCC4)n2)c1` [compound 307, {(S)-2-[5-(2,3-Dihydro-benzofuran-7-yl)-[1,2,4]oxadiazol-3-yl]-pyrrolidin-1-yl}-(5-methyl-2-[1,2,3]triazol-2-yl-phenyl)-methanone]: 130 nM and 3 nM.
`CCOc1ccccc1-c1nc([C@@H]2CCCN2C(=O)c2cc(OC)c(C)cc2-n2nccn2)no1` [compound 309, {(S)-2-[5-(2-Ethoxy-phenyl)-[1,2,4]oxadiazol-3-yl]-pyrrolidin-1-yl}-(5-methoxy-4-methyl-2-[1,2,3]triazol-2-yl-phenyl)-methanone]: the IC50 at orexin-1 (setting [1]) stood at 13 nM; on human orexin-2 receptor (setting [2]), 1 nM.
